Legend:
[1] = biological target: T1, α7 nicotinic acetylcholine receptor (α7 nAChR) (Sus scrofa, UniProt F1SNR6); assay: displacement of […]Iodo-ASEM at […] by autoradiography; conditions: read-out: [^125I]Iodo-ASEM Binding in the Pig Cortex, Layers 1-3 (%, mean ± S.E.M.)
T1 construct: gene CHRNA7; native receptor in pig cortex sections

[2] = biological target: T1, α7 nicotinic acetylcholine receptor (α7 nAChR); assay: displacement of […]Iodo-ASEM at […] by autoradiography; also blocks […]ASEM PET in vivo; conditions: read-out: [^125I]Iodo-ASEM Binding in the Pig Cortex, Layers 1-3 (%, mean ± S.E.M.)

T1 sequence (F1SNR6 20-499): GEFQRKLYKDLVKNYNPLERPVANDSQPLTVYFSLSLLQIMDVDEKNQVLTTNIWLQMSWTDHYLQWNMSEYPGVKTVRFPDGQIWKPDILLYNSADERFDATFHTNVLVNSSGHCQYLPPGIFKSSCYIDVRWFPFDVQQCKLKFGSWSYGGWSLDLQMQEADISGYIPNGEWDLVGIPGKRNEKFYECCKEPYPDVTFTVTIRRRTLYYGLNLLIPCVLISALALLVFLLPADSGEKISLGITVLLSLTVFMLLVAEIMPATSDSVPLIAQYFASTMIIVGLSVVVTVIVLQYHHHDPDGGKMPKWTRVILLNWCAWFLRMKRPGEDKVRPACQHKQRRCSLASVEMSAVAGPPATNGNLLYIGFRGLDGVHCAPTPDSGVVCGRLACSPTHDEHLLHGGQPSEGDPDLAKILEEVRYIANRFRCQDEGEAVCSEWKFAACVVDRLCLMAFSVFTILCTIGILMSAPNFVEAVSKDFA

SMILES	activity at 10 µM [1]	activity at 10 µM [2]
CN1C[C@@H]2CN(c3ccc(-c4ccccc4)nn3)C[C@@H]2C1 [A-582941]	3.22 ± 0.28%	–
O=C(Oc1ccc(Br)cc1)N1CCN2CCC1CC2 [SSR-180,711]	–	2.92 ± 0.35%
O=C(N[C@@H]1C2CCN(CC2)[C@H]1Cc1cccnc1)c1cc2ccccc2o1 [TC-5619]	7.88 ± 1.65%	–
CCN1C[C@]2(COC(=O)c3ccccc3N3C(=O)C[C@H](C)C3=O)CC[C@H](OC)[C@@]34[C@@H]5C[C@H]6[C@H](OC)[C@@H]5[C@](O)(C[C@@H]6OC)[C@@](O)([C@@H](OC)[C@H]23)[C@@H]14 [methyllycaconitine]	20.5 ± 2.18%	–

Source: article PMC7144377, “In Vitro and In Vivo Characterization of Dibenzothiophene Derivatives [^125I]Iodo-ASEM and [^18F]ASEM as Radiotracers of Homo- and Heteromeric α7 Nicotinic Acetylcholine Receptors” (Molecules, 2020)
